Results as given in paper PMC12557367, ““Precision on Two Wheels”–Structural Refinement of ^64Cu- and ^68Ga-Labeled Bicyclic Peptides Targeting Nectin‑4 for Improved Tumor Imaging: From Preclinical Development to First-in-Human Application” (Journal of Medicinal Chemistry, 2025).
Numbered stars: 1 amine (or outer) side, 2 acyl side, 3 side chain; on linkers, the order of the positions; unused ones are H or OH. Bridge positions count the residues as written; N and C are the ends. Square brackets hold non-standard residues; d marks the D form. Peptide text beside a SMILES is read from it. * marks the point of attachment. TATA = O=C(CC[*:1])N1CN(C(=O)CC[*:2])CN(C(=O)CC[*:3])C1; X1 = O=C(O)CN1CCN(CC(=O)O)CCN([C@H](CCC(=O)*)C(=O)O)CC1; 1Nal = N[C@@H](Cc1cccc2ccccc12)C(=O)O; Hyp = O=C(O)[C@@H]1C[C@@H](O)CN1; hArg = N=C(N)NCCCC[C@H](N)C(=O)O; hSer = N[C@@H](CCO)C(=O)O; Nle = CCCC[C@H](N)C(=O)O

Tests used:
[1] = target: T1, recombinant human nectin-4 (Homo sapiens, UniProt Q96NY8); test: FA-based competitive binding assay with probe 1a; conditions: competitive binding curve, variable slope
T1 construct: close to the value determined for the complete extracellular domain of nectin-4 (0.94 nM); purchased R&D Systems 2659-N4
T1 sequence (Q96NY8 32-349 limits assumed): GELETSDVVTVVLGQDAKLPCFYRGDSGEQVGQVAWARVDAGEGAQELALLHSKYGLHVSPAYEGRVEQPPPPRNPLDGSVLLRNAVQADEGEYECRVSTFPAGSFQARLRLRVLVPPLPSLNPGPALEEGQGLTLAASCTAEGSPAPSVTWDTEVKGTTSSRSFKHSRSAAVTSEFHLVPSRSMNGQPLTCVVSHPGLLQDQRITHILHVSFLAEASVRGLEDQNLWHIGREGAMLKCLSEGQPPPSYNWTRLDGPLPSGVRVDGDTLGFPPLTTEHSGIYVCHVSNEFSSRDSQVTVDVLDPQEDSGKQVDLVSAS

[2] = Chromatographic hydrophobicity index at immobilized artificial membrane (CHI IAM7.4) by HPLC; format: physicochemical; conditions: nonlabeled peptide, pH 7.4
Protocol: Consequently, the CHI IAM7.4 values indicate that unfavorable pharmacokinetic behavior due to nonspecific binding is not to be expected.
All commercial reagents and solvents were used without further purification, unless otherwise specified. […] The purity of compound 5, which bears selenomethionine, was lower due to the lability to oxidation (as discussed above). The HPLC-based determination of chromatographic hydrophobicity indices at an immobilized artificial membrane was performed as previously described according to the method developed by Valko et al.

[3] = format: in vitro ADME; conditions: 24 h
Protocol: Human plasma was collected as previously described. For assessing the stability in human plasma, 10 μL (10 MBq) of the labeling solution of [ ^ 64 Cu]-Cu-1e, [ ^ 64 Cu]-Cu-3a, or [ ^ 64 Cu]-Cu-4 were added to 90 μL of human plasma, and the mixture was incubated at 37 °C for up to 24 h. At distinct time points (1, 2, 4, and 24 h), an aliquot of 20 μL was withdrawn and diluted with 60 μL of a mixture named “Supersol” (composition as described above). This was followed by centrifugation at 16,100g for 2 min. The supernatant was analyzed by radio-HPLC (the same system as used for analyzing the ^64Cu-labelings).

HT-1376 cells = test: Saturation binding assay on intact cells; format: cell-based, human; conditions: intact HT-1376 cells, ±SD; for Kd: 60 min, PBS wash, apparent
Protocol: For the saturation binding assay, total and nonspecific binding were determined as described above using 10 different radioligand concentrations ([…]) prepared by serial 1:1 dilution. Plots of “total binding” = f(radioligand) were analyzed by nonlinear regressions using the model of “one site-total, accounting for ligand depletion” as implemented in GraphPad Prism, and Plots of “nonspecific binding” = f(radioligand) were analyzed by linear regressions.

[4] = tested on: HT-1376-derived tumor xenograft model; test: Small animal PET/CT imaging; parameters: species or system mice; conditions: mouse, in vivo
Method in brief: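 NMRI nude mice bore subcutaneous HT-1376 xenografts (5 × 10^6 cells in 50% Matrigel), imaged at ~200 mm^3 tumour volume. Radioligand (molar activity 25 MBq/nmol; ~9 MBq, ≈0.46 nmol) injected i.v. via tail vein, with 75 nmol blocking substance co-injected for blocking; dynamic 2 h PET from injection plus CT for attenuation correction.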

[5] = n-Octanol/PBS distribution coefficient (logD 7.4); format: physicochemical; conditions: pH 7.4
Protocol: The determination of logD 7.4 was performed in triplicate. A sample of the ^64Cu/^68Ga-labeled compound containing ≈1 MBq in a volume of 1 μL was added to a 1.5 mL Eppendorf tube containing 400 μL of PBS (pH 7.4) and 400 μL of n-Octanol (the phases were presaturated with each other). The tube was vortexed vigorously for 1 min and then centrifuged at 16,100g for 4 min to separate the phases. For sampling from the aqueous phase, the pipette tip was discharged while passing through the octanol layer. Then, the sample was taken within the aqueous phase. Any residual liquid was carefully removed by moving the tip along the inner wall of an Eppendorf tube. The radioactivity in a defined volume of each layer was measured (ISOMED 2100). The distribution coefficient was expressed as the logarithm of the ratio of counts per minute (cpm) measured in the n-Octanol phase to the cpm measured in the PBS phase.

[6] = target: human serum albumin (HSA) (Homo sapiens, UniProt P02768); format: in vitro ADME
From the text: page 20: S20 Figure S11: Assessment of plasma protein and HSA binding for [64Cu]Cu-1e and [64Cu]Cu-4 by ultrafiltration […] PBS), and undiluted human plasma. B) Plot of “percentage of retained activity in filter” = f([HSA]) for [64Cu]Cu-4 with nonlinear regression according to the Morrison equation ( total […] labeling). For details on the experimental method and regression analysis see ref. 1. PBS HSA Plasma 0% 20% 40% 60% 80% 47 64 50 percentage of retained activity in filter 102 103 104 105 106 107 0 20 40 60 80 100 [HSA] (nM) percentage of retained activity in filter […] A B (1 picture or pasted object on this page, not shown here)

Chain of human serum albumin (HSA) (P02768 25-609): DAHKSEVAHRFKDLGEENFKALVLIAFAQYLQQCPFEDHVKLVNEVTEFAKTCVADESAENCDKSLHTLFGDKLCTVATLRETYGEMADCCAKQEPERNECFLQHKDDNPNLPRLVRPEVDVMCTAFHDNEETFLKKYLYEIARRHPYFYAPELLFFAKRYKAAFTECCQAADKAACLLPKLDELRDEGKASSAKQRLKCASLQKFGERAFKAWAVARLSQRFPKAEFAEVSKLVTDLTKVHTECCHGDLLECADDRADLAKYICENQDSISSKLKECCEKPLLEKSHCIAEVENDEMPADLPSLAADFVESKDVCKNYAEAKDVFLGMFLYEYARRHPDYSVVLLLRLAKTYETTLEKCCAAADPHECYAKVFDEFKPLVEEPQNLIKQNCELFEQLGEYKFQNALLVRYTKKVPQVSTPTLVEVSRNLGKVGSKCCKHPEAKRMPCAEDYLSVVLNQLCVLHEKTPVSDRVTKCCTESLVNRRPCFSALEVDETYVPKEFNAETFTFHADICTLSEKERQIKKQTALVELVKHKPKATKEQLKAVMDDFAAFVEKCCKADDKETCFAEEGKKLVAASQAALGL

Row | SMILES | Hill coefficient n [1] | CHI IAM7.4 [2] | chemical and proteolytic stability in human plasma [3] | Kd (HT-1376 cells; ^64Cu-labeled ligand) [nM] | B max (fmol/mg) (HT-1376 cells; ^64Cu-labeled ligand) | Kd (HT-1376 cells; ^68Ga-labeled ligand) [nM] | B max (fmol/mg) (HT-1376 cells; ^68Ga-labeled ligand) | body retention at 2 h p.i. [4] | time of highest tumor uptake [4] [min] | logD 7.4 [5] | binding to HSA or other plasma proteins [6]
1 | CSCC[C@@H]1NC(=O)[C@@H]2CSCCC(=O)N3CN(CN(C3)C(=O)CCSC[C@H](NC(=O)CC[C@H](C(=O)O)N3CCN(CC(=O)O)CCN(CC(=O)O)CC3)C(=O)N3CCC[C@H]3C(=O)N[C@@H](Cc3cccc4ccccc34)C(=O)N[C@H](CC(=O)O)C(=O)N2)C(=O)CCSC[C@@H](C(N)=O)NC(=O)[C@H](Cc2c[nH]c3ccccc23)NC(=O)[C@@H]2C[C@@H](O)CN2C(=O)[C@@H]2CCCN2C(=O)[C@H]([C@@H](C)O)NC(=O)[C@H](CO)NC(=O)[C@H](Cc2c[nH]c3ccccc23)NC(=O)[C@H](CC(=O)O)NC(=O)[C@H](CCCCNC(=N)N)NC1=O [1e] | 1.52 | 19.9 | No signs of degradation | 7.15 | 780 (±23.9) fmol/mg | 8.7 | 1345 (±52.5) fmol/mg | – | – | – | –
2 | CCCC[C@@H]1NC(=O)[C@@H]2CSCCC(=O)N3CN(CN(C3)C(=O)CCSC[C@H](NC(=O)CC[C@H](C(=O)O)N3CCN(CC(=O)O)CCN(CC(=O)O)CC3)C(=O)N3CCC[C@H]3C(=O)N[C@@H](Cc3cccc4ccccc34)C(=O)N[C@H](CC(=O)O)C(=O)N2)C(=O)CCSC[C@@H](C(N)=O)NC(=O)[C@H](Cc2c[nH]c3ccccc23)NC(=O)[C@@H]2C[C@@H](O)CN2C(=O)[C@@H]2CCCN2C(=O)[C@H]([C@@H](C)O)NC(=O)[C@H](CO)NC(=O)[C@H](Cc2c[nH]c3ccccc23)NC(=O)[C@H](CC(=O)O)NC(=O)[C@H](CCCCNC(=N)N)NC1=O [3a] (X1-CP[1Nal][dD]C[Nle][hArg]DWSTP[Hyp]WC-NH2; linker 1-5-15 via TATA) | 1.30 | 20.6 | No signs of degradation | – | – | – | – | – | – | – | –
3 | COCC[C@@H]1NC(=O)[C@@H]2CSCCC(=O)N3CN(CN(C3)C(=O)CCSC[C@H](NC(=O)CC[C@H](C(=O)O)N3CCN(CC(=O)O)CCN(CC(=O)O)CC3)C(=O)N3CCC[C@H]3C(=O)N[C@@H](Cc3cccc4ccccc34)C(=O)N[C@H](CC(=O)O)C(=O)N2)C(=O)CCSC[C@@H](C(N)=O)NC(=O)[C@H](Cc2c[nH]c3ccccc23)NC(=O)[C@@H]2C[C@@H](O)CN2C(=O)[C@@H]2CCCN2C(=O)[C@H]([C@@H](C)O)NC(=O)[C@H](CO)NC(=O)[C@H](Cc2c[nH]c3ccccc23)NC(=O)[C@H](CC(=O)O)NC(=O)[C@H](CCCCNC(=N)N)NC1=O [[^64Cu]Cu-4] [metal not drawn] (X1-CP[1Nal][dD]C[hSer](Me)[hArg]DWSTP[Hyp]WC-NH2; linker 1-5-15 via TATA) | – | – | – | – | – | – | – | 40–42% | 12.5 | −2.76 | negligible binding capability
4 | COCC[C@@H]1NC(=O)[C@@H]2CSCCC(=O)N3CN(CN(C3)C(=O)CCSC[C@H](NC(=O)CC[C@H](C(=O)O)N3CCN(CC(=O)O)CCN(CC(=O)O)CC3)C(=O)N3CCC[C@H]3C(=O)N[C@@H](Cc3cccc4ccccc34)C(=O)N[C@H](CC(=O)O)C(=O)N2)C(=O)CCSC[C@@H](C(N)=O)NC(=O)[C@H](Cc2c[nH]c3ccccc23)NC(=O)[C@@H]2C[C@@H](O)CN2C(=O)[C@@H]2CCCN2C(=O)[C@H]([C@@H](C)O)NC(=O)[C@H](CO)NC(=O)[C@H](Cc2c[nH]c3ccccc23)NC(=O)[C@H](CC(=O)O)NC(=O)[C@H](CCCCNC(=N)N)NC1=O [compound 4] (X1-CP[1Nal][dD]C[hSer](Me)[hArg]DWSTP[Hyp]WC-NH2; linker 1-5-15 via TATA) | 1.72 | 20.2 | No signs of degradation | 6.06 | – | 13.1 | – | – | – | – | –
